Data on 15 molecules can be found in patent US4772586A, “Novel derivatives of arginine vasopressin antagonists” (Medical College of Ohio, priority 1986, dated 1988).

The test system of test [1] is vasopressor response to arginine vasopressin. As to the kind of experiment: Antagonism to the vasopressor response (Anti-VP). Format: in vivo. The settings on record: estimated in vivo pA2; for Anti-VP pA2: Table 1. The method, then: Antagonism to the vasopressor response was estimated in accordance with Dyckes et al., J. Med. Chem., vol. 17 (1974) at 969. The values are expressed as pA2 values, defined as in Schild et al., Br. J. Pharmacol., vol. 2 (1947) at 189.
(§1) Antagonistic potencies were determined and expressed as "effective doses" and pA2 values. The "effective dose" is defined as the dose (in nanomoles per kilogram) that reduces the response seen from 2x units of agonist injected 20 min after the dose of antagonist to the response with 1x units of agonist. Estimated in vivo "pA2 " values represent the negative logarithms of the effective doses, divided by the estimated volume of distribution (67 ml/kg).

Test [2] deals with antidiuretic response to arginine vasopressin. Nature of the test: Antagonism of the antidiuretic response to arginine vasopressin (Anti-ADH). The class given is in vivo, rats. As to conditions: for Anti-ADH Potency pA2: estimated in vivo pA2; for Anti-ADH pA2: Table 1, estimated in vivo pA2 = negative log of effective dose divided by volume of distribution (67 ml/kg). The method, then: Activity as antidiuretic agonists was determined by intravenous injection of the compounds being evaluated in ethanol-anesthesized water-loaded rats in accordance with Sawyer, Endocrinology, vol. 63 (1958) at 694. Antagonism of the antidiuretic response to subsequent injections of arginine vasopressin was tested by the method of Sawyer et al., Science, vol. 212 (1981) at 49.
as §1

*1 amine or outer side, *2 acyl side, *3 side chain or, on linkers, in order; H or OH if unused. Where a SMILES comes first, the peptide text is derived from it. Bridges are numbered along the chain shown (N, C = ends). [ ]: non-standard residue; d: D form. The star is where a group is joined. Ethylenediamine = C(CN[*:2])N[*:1]; X1 = O=C(CC1(S[*:2])CCCCC1)[*:1]; Orn = NCCC[C@H](N)C(=O)O; βAla = NCCC(=O)O; NHBu = CCCCN*

With `CC[C@H](C)[C@@H]1NC(=O)[C@H](Cc2ccccc2)NC(=O)[C@@H](Cc2ccccc2)NC(=O)CC2(CCCCC2)SSC[C@@H](C(=O)N2CCC[C@H]2C(=O)N[C@@H](CCCNC(=N)N)C(=O)N[C@@H](CO)C(N)=O)NC(=O)[C@H](CC(N)=O)NC1=O` [Ser(NH2), [1-(beta-mercapto-beta,beta-cyclopentamethylenepropionic acid), 2-D-phenylalanine, 4-isoleucine, 9-serinamide]-arginine vasopressin] ([dF]FINCPRS-NH2; linker N-5 via X1), in test [1] (Table 2), the “Anti-VP Potency pA2” value is listed as 8.10 ± 0.08. In addition, the “Anti-ADH Potency pA2” value in test [2] (Table 2) is given as 8.10 ± 0.07.

Consider `CCOc1ccc(C[C@H]2NC(=O)CC3(CCCCC3)SSC[C@@H](C(=O)N3CCC[C@H]3C(=O)N[C@@H](CCCNC(=N)N)C(=O)NCCC(=O)NC)NC(=O)[C@H](CC(N)=O)NC(=O)[C@H](C(C)C)NC(=O)[C@H](Cc3ccccc3)NC2=O)cc1` [1-(beta-mercapto-beta,beta-cyclopentamethyleneproprionic acid), 2-D-(O-ethyl)tyrosine, 4-valine, 9-beta-alanine-N-methylamide]-arginine vasopressin] ([dY](Et)FVNCPR[βAla]-NHMe; linker N-5 via X1), for which, in test [1] (Table 4, ^+ = mixed), the “Anti-VP Potency pA2” value is reported as 7.77 ± 0.05. The “Anti-ADH Potency pA2” value in test [2] (Table 4) is 7.61 ± 0.02.

For `N=C(N)NCCC[C@H](NC(=O)[C@@H]1CCCN1C(=O)[C@@H]1CSSC2(CCCCC2)CC(=O)N[C@@H](Cc2ccc(O)cc2)C(=O)N[C@@H](Cc2ccccc2)C(=O)N[C@@H](CCC(N)=O)C(=O)N[C@@H](CC(N)=O)C(=O)N1)C(=O)NCC(N)=O` [d(CH2)5 AVP, [1-(beta-mercapto-beta,beta-cyclopentamethylenepropionic acid)]-arginine vasopressin, reference compound] (YFQNCPRG-NH2; linker N-5 via X1), the “Anti-VP pA2” value in test [1] was 8.16 ± 0.09.

For `CC[C@H](C)[C@@H]1NC(=O)[C@H](Cc2ccccc2)NC(=O)[C@@H](Cc2ccccc2)NC(=O)CC2(CCCCC2)SSC[C@@H](C(=O)N2CCC[C@H]2C(=O)N[C@@H](CCCNC(=N)N)C(=O)NCCN)NC(=O)[C@H](CC(N)=O)NC1=O` [[1-(beta-mercapto-beta,beta-cyclopentamethylenepropionic acid), 2-D-phenylalanine, 4-isoleucine, 8-arginine-N-(beta-amino)ethylamide, 9-desglycinamide] vasopressin] ([dF]FINCPR-Ethylenediamine; linker N-5 via X1), the “Anti-VP Potency pA2” value in test [1] (Table 4, ^+ = mixed) is on record as 7.89 ± 0.04. Besides, in test [2] (Table 4), the “Anti-ADH Potency pA2” value is 8.11 ± 0.06.

In the case of `CCOc1ccc(C[C@@H]2NC(=O)CC3(CCCCC3)SSC[C@@H](C(=O)N3CCC[C@H]3C(=O)N[C@@H](CCCNC(=N)N)C(N)=O)NC(=O)[C@H](CC(N)=O)NC(=O)[C@H](C(C)C)NC(=O)[C@H](Cc3ccccc3)NC2=O)cc1` [desGly^9 d(CH2)5 [Tyr(Et)^2]VAVP, [1-(beta-mercapto-beta,beta-cyclopentamethylenepropionic acid), 2-(O-ethyl)tyrosine, 4-valine, 9-desglycine]-arginine vasopressin] (Y(Et)FVNCPR-NH2; linker N-5 via X1), the “Anti-VP pA2” value in test [1] is given as 8.18 ± 0.02. Also, in test [2], the “Anti-ADH pA2” value is on record as 7.89 ± 0.09.

In the case of `CC[C@H](C)[C@@H]1NC(=O)[C@H](Cc2ccccc2)NC(=O)[C@@H](Cc2ccc(O)cc2)NC(=O)CC2(CCCCC2)SSC[C@@H](C(=O)N2CCC[C@H]2C(=O)N[C@@H](CCCNC(=N)N)C(=O)NCCN)NC(=O)[C@H](CC(N)=O)NC1=O` [[1-beta-mercapto-beta,beta-cyclopentamethylenepropionic acid, 2-D-tyrosine, 4-isoleucine, 8-arginine-N-(beta-amino)ethylamide, 9-desglycinamide] vasopressin] ([dY]FINCPR-Ethylenediamine; linker N-5 via X1), in test [1] (Table 4, ^+ = mixed), the “Anti-VP Potency pA2” value was 7.93 ± 0.08. For the same molecule, the “Anti-ADH Potency pA2” value in test [2] (Table 4) is 7.81 ± 0.06.

On to `CC[C@H](C)[C@@H]1NC(=O)[C@H](Cc2ccccc2)NC(=O)[C@@H](Cc2ccccc2)NC(=O)CC2(CCCCC2)SSC[C@@H](C(=O)N2CCC[C@H]2C(=O)N[C@@H](CCCNC(=N)N)C(=O)N[C@@H](CCCN)C(N)=O)NC(=O)[C@H](CC(N)=O)NC1=O` [Orn(NH2), [1-(beta-mercapto-beta,beta-cyclopentamethylenepropionic acid), 2-D-phenylalanine, 4-isoleucine, 9-ornithinamide]-arginine vasopressin] ([dF]FINCPR[Orn]-NH2; linker N-5 via X1), for which the “Anti-VP Potency pA2” value in test [1] (Table 2) is reported as 7.80 ± 0.05. Besides, the “Anti-ADH Potency pA2” value in test [2] (Table 2) is 8.18 ± 0.09.

Regarding `CCOc1ccc(C[C@H]2NC(=O)CC3(CCCCC3)SSC[C@@H](C(=O)N3CCC[C@H]3C(=O)N[C@@H](CCCNC(=N)N)C(=O)N[C@@H](C)C(=O)NC)NC(=O)[C@H](CC(N)=O)NC(=O)[C@H](C(C)C)NC(=O)[C@H](Cc3ccccc3)NC2=O)cc1` [[1-(beta-mercapto-beta,beta-cyclopentamethylenepropionic acid), 2-D-(O-ethyl)tyrosine, 4-valine, 9-alanine-N-methylamide]-arginine vasopressin] ([dY](Et)FVNCPRA-NHMe; linker N-5 via X1), the “Anti-VP Potency pA2” value in test [1] (Table 4, ^+ = mixed) is recorded as 8.17 ± 0.04. Further, the “Anti-ADH Potency pA2” value in test [2] (Table 4) is 7.92 ± 0.06.

`CC[C@H](C)[C@@H]1NC(=O)[C@H](Cc2ccccc2)NC(=O)[C@@H](Cc2ccccc2)NC(=O)CC2(CCCCC2)SSC[C@@H](C(=O)N2CCC[C@H]2C(=O)N[C@@H](CCCNC(=N)N)C(=O)N2CCC[C@H]2C(N)=O)NC(=O)[C@H](CC(N)=O)NC1=O` [Pro(NH2), [1-(beta-mercapto-beta,beta-cyclopentamethylenepropionic acid), 2-D-phenylalanine, 4-isoleucine, 9-prolinamide]-arginine vasopressin] ([dF]FINCPRP-NH2; linker N-5 via X1): the “Anti-VP Potency pA2” value in test [1] (Table 2) was 7.12 ± 0.11. Besides, the “Anti-ADH Potency pA2” value in test [2] (Table 2) is on record as 7.19 ± 0.04.

With `CCOc1ccc(C[C@H]2NC(=O)CC3(CCCCC3)SSC[C@@H](C(=O)N3CCC[C@H]3C(=O)N[C@@H](CCCNC(=N)N)C(N)=O)NC(=O)[C@H](CC(N)=O)NC(=O)[C@H](C(C)C)NC(=O)[C@H](Cc3ccccc3)NC2=O)cc1` [desGly^9 d(CH2)5 [D-Tyr(Et)^2]VAVP, [1-(beta-mercapto-beta,beta-cyclopentamethylenepropionic acid), 2-D-(O-ethyl)tyrosine, 4-valine, 9-desglycine]-arginine vasopressin] ([dY](Et)FVNCPR-NH2; linker N-5 via X1), the “Anti-VP pA2” value in test [1] is 8.17 ± 0.04. The “Anti-ADH pA2” value in test [2] is listed as 7.69 ± 0.08.

Regarding `COc1ccc(C[C@@H]2NC(=O)CC3(CCCCC3)SSC[C@@H](C(=O)N3CCC[C@H]3C(=O)N[C@@H](CCCNC(=N)N)C(=O)NCC(=O)NCCN)NC(=O)[C@H](CC(N)=O)NC(=O)[C@H](CCC(N)=O)NC(=O)[C@H](Cc3ccccc3)NC2=O)cc1` [[1-(beta-mercapto-beta,beta-cyclopentamethylenepropionic acid), 2-(O-methyl)tyrosine, 9-glycine-N-(beta-amino)ethylamide]-arginine vasopressin] (Y(Me)FQNCPRG-Ethylenediamine; linker N-5 via X1), the “Anti-VP Potency pA2” value in test [1] (Table 4, ^+ = mixed) is on record as 8.39 ± 0.05.

For the molecule `N=C(N)NCCC[C@H](NC(=O)[C@@H]1CCCN1C(=O)[C@@H]1CSSC2(CCCCC2)CC(=O)N[C@@H](Cc2ccc(O)cc2)C(=O)N[C@@H](Cc2ccccc2)C(=O)N[C@@H](CCC(N)=O)C(=O)N[C@@H](CC(N)=O)C(=O)N1)C(N)=O` [desGly^9 d(CH2)5 AVP, [1-(beta-mercapto-beta,beta-cyclopentamethylenepropionic acid), 9-desglycine]-arginine vasopressin] (YFQNCPR-NH2; linker N-5 via X1), in test [1], the “Anti-VP pA2” value is 8.40 ± 0.06.

Consider `CCCCNC(=O)[C@H](CCCNC(=N)N)NC(=O)[C@@H]1CCCN1C(=O)[C@@H]1CSSC2(CCCCC2)CC(=O)N[C@H](Cc2ccccc2)C(=O)N[C@@H](Cc2ccccc2)C(=O)N[C@@H]([C@@H](C)CC)C(=O)N[C@@H](CC(N)=O)C(=O)N1` [[1-(beta-mercapto-beta,beta-cyclopentamethylenepropionic acid), 2-D-phenylalanine, 4-isoleucine, 8-arginine-N-(n-butyl)amide, 9-desglycinamide)] vasopressin] ([dF]FINCPR-NHBu; linker N-5 via X1), for which the “Anti-VP Potency pA2” value in test [1] (Table 4, ^+ = mixed) was 7.13 ± 0.08.

For `CCCCNC(=O)CNC(=O)[C@H](CCCNC(=N)N)NC(=O)[C@@H]1CCCN1C(=O)[C@@H]1CSSC2(CCCCC2)CC(=O)N[C@@H](Cc2ccc(OC)cc2)C(=O)N[C@@H](Cc2ccccc2)C(=O)N[C@@H](CCC(N)=O)C(=O)N[C@@H](CC(N)=O)C(=O)N1` [d(CH2)5 [Tyr(Me)^2, Gly(NHBu-n)^9]AVP, [1-(beta-mercapto-beta,beta-cyclopentamethylenepropionic acid), 2-(O-methyl)tyrosine, 9-glycine-N-(n-butyl)amide]-arginine vasopressin] (Y(Me)FQNCPRG-NHBu; linker N-5 via X1), the “Anti-VP Potency pA2” value in test [1] (Table 4, ^+ = mixed) is 8.44 ± 0.07.

As to `N=C(N)NCCC[C@H](NC(=O)[C@@H]1CCCN1C(=O)[C@@H]1CSSC2(CCCCC2)CC(=O)N[C@@H](Cc2ccc(O)cc2)C(=O)N[C@@H](Cc2ccccc2)C(=O)N[C@@H](CCC(N)=O)C(=O)N[C@@H](CC(N)=O)C(=O)N1)C(=O)O` [desGly(NH2)^9 d(CH2)5 AVP, [1-(beta-mercapto-beta,beta-cyclopentamethylenepropionic acid), 9-desglycinamide]-arginine vasopressin] (YFQNCPR-OH; linker N-5 via X1), in test [1], the “Anti-VP pA2” value was 7.88 ± 0.06.
